A short description of test [1]: Progression of weight, furosemide-study. Format: in vivo, Wistar rat. The protocol: During the progression of both studies, the animals were weight-determined twice a week, starting from the date of surgery (laboratory balance model CS2000. Ohaus Corporation, Pine Brook, N.J., USA). The results were calculated corresponding to the post-surgical day of the respective animal.
(§1) Groups A, B and C of the infarction animals received furosemide (Lasix® 250 mg ampoule, Aventis Pharma GmbH, Frankfurt am Main, Germany) starting from day 18 (±2 days) for the whole study in a concentration of 8.6 mg/100 ml in drinking water. This corresponds to an initial dosage of 10 mg/kg/d at a weight of 300 g and an amount of drinking water of 35 ml/d.
Animals from the infarction-placebo group (without furosemide) and all sham-animals received drinking water without supplementation.
(§2) The infarction-furosemide-group corresponds to the blinded infarction-placebo-group of the megestrol acetate-Study (here: infarction-furosemide-group). An additional infarction-surgery group received simple drinking water without furosemide and served as control group for the furosemide-study (here: infarction-placebo-group). In order to expose all animals to equal conditions, in this group the furosemide-study was gavaged unblinded with placebo. A further group is the sham-placebo-group, that corresponds to the blinded sham-placebo-group of the megestrol acetate-study (here: sham-placebo-group).
Like in the megestrol acetate-study, the weight values corresponding to the day post-surgery of the respective animal were compared, but this time the data was analysed as a change of weight starting from the beginning of therapy of the furosemide-study (18th day post-surgery=day 0 of the furosemide-study). This therefore results in a 26 days longer period of observation for the diuretic-study in comparison with the megestrol acetate-study. Furosemide was given until the end of the observation period and to removal of organs, respectively.

For test [2], the system named is infarction-surgery rats (ligation of the left coronary artery, heart insufficiency). The experiment in a line: Echocardiography, furosemide-study. Format: in vivo, Wistar rat. The protocol:
as §1
Between week 28 and 30 post surgery (corresponds to week 22 to 24 in the megestrol acetate-Study or week 25 to 27 in the diuretic study), the heart function of all rats still alive was examined by echocardiography. For this, each rat was first pre-anaesthetised using isoflurane (Curamed Pharma GmbH Karlsruhe, Germany) in a chamber of the anaesthetic unit Univentor 400 Anaesthesia Unit (Agn Tho's, Lidingö, Sweden) pre-anaesthetised and subsequently maintained by using a mask. For the echocardiography examination the thorax region was shaved and the rat was fixed in a position lying on the back. The echocardiography was performed with an Acuson-Sequoia C256 (Siemens, Germany) which was equipped with a 15 MHz sonication head suitable for rat- and mouse echocardiography. The left ventricle (LV) was adjusted in the parastemal long and short axis. […] The diastolic function was evaluated based on the LV-influx profile via the mitral valve (E/A-ratio) by means of a PW-Doppler. The measurement volume of the PW-doppler was placed at the tip of the opened mitral valve flap. The measurements were performed by an independent blinded researcher. In FIG. 1 the progression of weight for all groups is depicted.
as §2

The mark [3] stands for this setting: infarction-furosemide-group, furosemide via drinking water, placebo in the gavage.

“Also recorded” adds a separate entry of the source.

Turning to `NS(=O)(=O)c1cc(C(=O)O)c(NCc2ccco2)cc1Cl` [furosemide], in test [1] (infarction-furosemide-group), the “increase of weight over the whole period of time” value is listed as 1.4 g/day, the “weight at the end of the observation period” value amounted to 583 ± 12 g and the “weight gained at the end of the observation period” value is 81%. Besides, the “mean weight at the beginning of the diuretic-study” value in test [1] (infarction-furosemide-group, day 18 following surgery) is 322 ± 3 g. In test [1] (starting from day 105 after beginning of therapy, significant), the “progress of weight in comparison with the placebo-group with infarction” value is listed as “less pronounced progress”. Moreover, the “effect on the echocardiographically determined heart function” value in test [2] (infarction groups with vs. without furosemide) was “no differences; also recorded: no direct effect”. In addition, in test [2] (setting [3]), the A is 0.62 ± 0.05 m/s, the E is 0.84 ± 0.03 m/s, the “E:A” value is listed as 1.61 ± 0.21 and the FS stood at 15.1 ± 1.0 %. Also, in test [2] (setting [3]), the IVS d was 0.13 ± 0.03 cm, the LVEDD was 1.06 ± 0.02 cm, the LVEF was found to be 35.5 ± 2.0 % and the LVESD is listed as 0.90 ± 0.02 cm. In test [2] (setting [3]), this compound registered an LVHW d of 0.17 ± 0.01 cm.

The record behind these values is patent US8383612B2, “Use of megestrol acetate for improving heart function and the treatment of heart insufficiency” (Par Pharmaceuticals, Inc., priority 2004, dated 2013).
